Literature values in patent US20060069068A1, “Methods and compositions for the treatment of diseases characterized by pathological calcification” (Nanobac Pharmaceuticals, Inc., priority 2004, published 2006).

Legend:
[1] = both in vitro and in vivo; comparator etidronate
Nanobacteria = conditions: background statement

Row | Compound | potency relative to etidronate [1] | killing of Nanobacteria (Nanobacteria)
1 | NCCCC(O)(P(=O)(O)O)P(=O)(O)O [alendronate] | approximately 700 fold | –
2 | Penicillin | – | cannot be killed
